Test results taken from patent US8691851B2, “Lanthanide metal complexes useful in treating cancer” (National University of Singapore, priority 2009, dated 2014).
Like-named read-outs stand apart in the source and are kept apart here.

What was measured:
[1] = system: HCT-116 colorectal tumor cells
Method: HCT-116 colorectal tumor cells were grafted subcutaneously onto nude mice. Tumor-bearing mice were then treated with solvent control (water) or different concentrations of (100 μg, 200 μg) C19H24N3O5S5Pr on day 1, day 5, day 9, day 12, and day 15. Tumor volumes (mm^3) were measured on day 1, day 5, day 8, day 9, day 12, day 14 and day 16. Tumor volumes in treated mice were compared with those of control mice.

[2] = target: T1, PPARγ (Homo sapiens, UniProt P37231); assay: pPPREx3-TKLuc reporter with PPAR-γ short-hairpin RNA silencing (Method 1); type: cell-based; set-up: endogenous in cells; host or cells: SHSY5Y, SHEP1 / SHEP-1 (neuroblastoma); MDA-MB-231, T47D (breast cancer); details: SHEP-1 cells, 5 uM and 10 uM, 18 hr
T1 sequence (P37231 1-505): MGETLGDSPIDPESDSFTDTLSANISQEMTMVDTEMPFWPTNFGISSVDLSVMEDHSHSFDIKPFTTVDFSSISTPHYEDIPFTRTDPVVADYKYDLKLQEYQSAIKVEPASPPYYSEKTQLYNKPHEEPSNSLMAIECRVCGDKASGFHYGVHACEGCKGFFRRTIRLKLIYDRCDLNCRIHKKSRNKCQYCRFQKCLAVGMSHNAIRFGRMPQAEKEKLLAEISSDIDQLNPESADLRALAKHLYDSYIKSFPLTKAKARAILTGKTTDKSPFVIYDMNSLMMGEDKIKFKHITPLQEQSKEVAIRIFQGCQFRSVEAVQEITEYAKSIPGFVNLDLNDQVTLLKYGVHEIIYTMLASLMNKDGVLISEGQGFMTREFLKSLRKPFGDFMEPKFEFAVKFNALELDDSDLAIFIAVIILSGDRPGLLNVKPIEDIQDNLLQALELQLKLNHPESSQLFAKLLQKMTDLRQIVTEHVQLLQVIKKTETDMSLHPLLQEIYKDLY
Excerpt: In Method 1, a reporter plasmid containing three copies of the PPAR response element (pPPREx3-TKLuc) as illustrated in FIG. 19A and as previously described in Kim et al, Toxicological Sciences, 85, (2005), pp. 585-593, was transfected into SHEP-1 cancer cells. This system directly measures activation of endogenous PPAR via transcriptional activation of the luciferase reporter gene as a result of PPARγ binding to the PPAR response element (PPRE). To determine whether PPARγ receptor is activated by C19H24N3O5S5Pr, the SHEP-1 cancer cells was transiently transfected with either short-hairpin RNA plasmid targeting PPAR-γ protein or short hairpin RNA negative control. The cells were exposed to varying doses (5 uM, 10 uM) of C19H24N3O5S5Pr for 18 hr.

[3] = system: PTEN and MnSOD mRNA; details: SHEP-1 cells, 10 uM, 4 hr, 8 hr and 18 h
Method: This example illustrates the effect of C19H24N3O5S5Pr on the mRNA levels of PTEN and MnSOD in SHEP-1 cancer cells. mRNA levels of PTEN and MnSOD were assayed by real time PCR after treatment with 10 uM Pr-MPO for 4 hr, 8 hr and 18 h.

[4] = system: caspases; details: cancer cells
[5] = target: T2, phosphorylation-defective mutant of PPARγ (GFP-PPARg S82A) (Mus musculus, UniProt P37238, S112A); assay: 3×PPRE luciferase reporter with phosphorylation-defective mutant PPARγ; type: cell-based; details: SHSY5Y cells, 10 uM, 18 hours
T2 construct: expressed in transfected cells; host or cells: SHSY5Y neuroblastoma cells
T2 sequence (P37238 1-475 isoform P37238-2 S82A): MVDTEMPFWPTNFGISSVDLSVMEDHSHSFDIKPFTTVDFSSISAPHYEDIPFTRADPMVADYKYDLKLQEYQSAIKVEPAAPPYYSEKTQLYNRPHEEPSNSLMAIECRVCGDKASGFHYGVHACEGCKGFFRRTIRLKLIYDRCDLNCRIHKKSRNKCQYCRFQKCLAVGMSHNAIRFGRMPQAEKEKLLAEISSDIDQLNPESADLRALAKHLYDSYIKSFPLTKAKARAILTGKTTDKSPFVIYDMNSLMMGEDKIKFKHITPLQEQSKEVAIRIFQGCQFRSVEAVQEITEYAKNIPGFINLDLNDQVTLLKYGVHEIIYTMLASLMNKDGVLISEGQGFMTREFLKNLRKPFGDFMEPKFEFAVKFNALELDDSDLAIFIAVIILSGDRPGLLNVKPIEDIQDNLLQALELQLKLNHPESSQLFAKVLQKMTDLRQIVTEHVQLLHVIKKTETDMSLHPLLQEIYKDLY
Method: SHSY5Y neuroblastoma cells were transiently co-transfected with either a plasmid encoding wild type PPARγ or a phosphorylation-defective mutant of PPARγ (GFP-PPARg S82A), 3×PPRE luciferase plasmid and plasmid encoding renilla for transfection efficiency. Forty eight hours following transfection, cells were exposed to 10 uM of C19H24N3O5S5Pr for 18 hours.

[6] = target: T1, PPARγ; assay: 3×PPRE luciferase reporter, PPARγ activation in breast cancer cells; type: cell-based; set-up: endogenous in cells; host or cells: MDA-MB-231, T47D (breast cancer); details: 0 to 20 μM, 18 hours
Excerpt: To determine if C19H24N3O5S5Pr activation of PPARγ is dependent on expression of PPARγ in breast cancer cells, breast cancer cells MDA-MB-231 and T47D were transiently co-transfected with a 3×PPRE luciferase plasmid and renilla plasmid for transfection efficiency.

[7] = system: Bax, cytochrome C; details: 5 μM and 10 μM
[8] = system: AIF (apoptosis inducing factor); details: SHEP-1 cells, 5 μM and 10 μM, 24 hr
Method: Different concentrations (5 μM and 10 μM) of C19H24N3O5S5Pr (indicated as “Pr-MPO”) were administered into SHEP-1 cancer cells. The detection of AIF in the cytosol and nucleus fractions was determined by Western Blot analysis at 18 hr and 24 hr of treatment with C19H24N3O5S5Pr.

[9] = system: LC3 II; assay: LC3 II formation by Western blot; type: cell-based; details: SHEP-1 and SHSY5Y cells, 5 μM and 10 μM, 4 hr, 8 hr and 18 hr

CS(C)=O.CS(C)=O.[O-][n+]1ccccc1[S-].[O-][n+]1ccccc1[S-].[O-][n+]1ccccc1[S-].[Pr+3] [C19H24N3O5S5Pr, praseodymium (2-mercaptopyridine N-oxide)(dimethylsulfoxide)]
tumor size compared to control mice ([1]; 100 μg or 200 μg on day 1, 5, 9, 12 and 15, measured to day 16): did not show a substantial increase in tumor size | tumor growth suppression/inhibition versus control mice ([1]; 200 μg): at least 3 fold | tumor activity suppressed/inhibited, 200 μg versus 100 μg ([1]; dosage increased from 100 μg to 200 μg): at least 2 fold | luciferase activity upon silencing of PPARγ protein [2]: luciferase activity was abrogated | mRNA levels of PTEN and MnSOD [3]: also found at the mRNA level | caspase activation [4]: does not activate caspases | activation of phosphorylation-defective mutant PPARγ versus wild type [5]: significant activation of phosphorylation-defective mutant PPARγ | PPARγ activation, MDA-MB-231 versus T47D cells [6]: activates PPARγ better in MDA-MB-231 cells, than in T47D cells | Bax translocation ([7]; SHEP-1 cells, 18 hr and 24 hr): causes Bax translocation to the mitochondrial fraction | cytochrome C release ([7]; SHEP-1 cells, 18 hr and 24 hr): cytochrome C release into the cytosol | Bax translocation ([7]; SHSY5Y cells, 24 hr): causes Bax translocation to the mitochondrial fraction | cytochrome C release ([7]; SHSY5Y cells, 24 hr): cytochrome C release into the cytosol | AIF translocation [8]: AIF was translocated into the nucleus | LC3 II induction [9]: induction of phosphtidylethaonolamine (PE)-conjugated form of microtubule-associated protein 1 light chain 3 (LC3 II)
